Active and inactive are the calls of the source. The rule behind the calls is not given here.
Test system: rodent carcinogenicity bioassays, tumor incidence
Assay: CCRIS carcinogenicity studies
In short: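 Archive of carcinogenicity, mutagenicity, tumor promotion and tumor inhibition results drawn from journals, NCI reports and other sources, expert-reviewed; covers 1985-2011 and is no longer updated.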

With CC(C)(C)c1cc(O)c(C(C)(C)C)cc1O the carcinogen call (Species: HAMSTER, Strain/Sex: SYRIAN/MALE, Route: ORAL, Dose: 1% IN DIET FOR 24 WK (STUDY DURATION: 24 WK), Tumor Site: Type of Lesion: FORESTOMACH: PAPILLOMA) was “active; positive”.
With Nc1ccc(-c2ccc(N)cc2)cc1 the carcinogen call (Species: DOG, Route: ORAL, Tumor Site: Type of Lesion: URINARY BLADDER) was “active; positive”, the carcinogen call (Species: HAMSTER, Route: ORAL, Tumor Site: Type of Lesion: LIVER) was “active; positive” and the carcinogen call (Species: HUMAN, Route: ORAL, INHALATION, DERMAL, Tumor Site: Type of Lesion: URINARY BLADDER) was “active; positive”. For the same compound, the carcinogen call (Species: MOUSE, Route: SUBCUTANEOUS, Tumor Site: Type of Lesion: LIVER) was “active; positive”, the carcinogen call (Species: RAT, Route: ORAL, Tumor Site: Type of Lesion: LIVER) was “active; positive” and the carcinogen call (Species: RAT, Route: SUBCUTANEOUS, Tumor Site: Type of Lesion: LIVER, EAR (ZYMBAL GLAND), INJECTION SITE, Tumor Site: Type of Lesion: LIVER, EAR (ZYMBAL GLAND), INJECTION SITE) was “active; positive”. For the same compound, the carcinogen call (Species: RAT, Strain/Sex: STRAIN-CD/FEMALE, Route: INTRAPERITONEAL, Dose: 0, 10, 30 UMOL/KG IN TRIOCTANOIN 2/WK FOR 4 WK (TOTAL DOSES: 13.5, 40.1 UMOL) (STUDY DURATION: 46 WK), Dose: 0, 10, 30 UMOL/KG IN TRIOCTANOIN 2/WK FOR 4 WK (TOTAL DOSES: 13.5, 40.1 UMOL) (STUDY DURATION: 46 WK), Tumor Site: Type of Lesion: MAMMARY GLAND: FIBROADENOMA, ADENOCARCINOMA, EAR (ZYMBAL GLAND): ADENOMA OR CARCINOMA) was “active; positive”.
With CCCCCC(O)/C=C/C=O (stereo unspecified) the carcinogen call (Species: MOUSE, Strain/Sex: B6C3F1/FEMALE, Route: INTRAPERITONEAL, Dose: 0, 750 NMOL TOTAL DOSE, 1/3 AND 2/3 OF THE TOTAL DOSE ADMINISTERED AT 8 AND 15 DAYS OF AGE RESPECTIVELY, ANIMALS TERMINA) was “inactive; negative”, the carcinogen call (Species: MOUSE, Strain/Sex: B6C3F1/FEMALE, Route: INTRAPERITONEAL, Dose: 0, 1500 NMOL TOTAL DOSE, 1/3 AND 2/3 OF THE TOTAL DOSE ADMINISTERED AT 8 AND 15 DAYS OF AGE RESPECTIVELY, ANIMALS TERMIN) was “inactive; negative” and the carcinogen call (Species: MOUSE, Strain/Sex: B6C3F1/MALE, Route: INTRAPERITONEAL, Dose: 0, 750 NMOL TOTAL DOSE, 1/3 AND 2/3 OF THE TOTAL DOSE ADMINISTERED AT 8 AND 15 DAYS OF AGE RESPECTIVELY, ANIMALS TERMINA) was “inactive; negative”. For the same compound, the carcinogen call (Species: MOUSE, Strain/Sex: B6C3F1/MALE, Route: INTRAPERITONEAL, Dose: 0, 1500 NMOL TOTAL DOSE, 1/3 AND 2/3 OF THE TOTAL DOSE ADMINISTERED AT 8 AND 15 DAYS OF AGE RESPECTIVELY, ANIMALS TERMIN) was “inactive; negative”, the carcinogen call (Species: MOUSE, Strain/Sex: CD-1/FEMALE, Route: INTRAPERITONEAL, Dose: 0, 50, 100, 200 NMOL/MOUSE (TOTAL DOSE) ADMINISTERED IN 3 DOSES ON DAY 1, 8 AND 15 OF STUDY (STUDY DURATION: 6 WK), Dose: 0, 50, 100, 200 NMOL/MOUSE (TOTAL DOSE) ADMINISTERED IN 3 DOSES ON DAY 1, 8 AND 15 OF STUDY (STUDY DURATION: 6 WK)) was “inactive; negative” and the carcinogen call (Species: MOUSE, Strain/Sex: CD-1/MALE, Route: INTRAPERITONEAL, Dose: 0, 50, 100, 200 NMOL/MOUSE (TOTAL DOSE) ADMINISTERED IN 3 DOSES ON DAY 1, 8 AND 15 OF STUDY (STUDY DURATION: 6 WK), Dose: 0, 50, 100, 200 NMOL/MOUSE (TOTAL DOSE) ADMINISTERED IN 3 DOSES ON DAY 1, 8 AND 15 OF STUDY (STUDY DURATION: 6 WK)) was “inactive; negative”.
With CC(CN1CC(=O)NC(=O)C1)N1CC(=O)NC(=O)C1 (stereo unspecified) the carcinogen call (Species: MOUSE, Strain/Sex: B6C3F1/FEMALE, Route: INTRAPERITONEAL, Dose: 0, 40, 80 MG/KG IN BUFFERED SALINE 3/WK FOR 52 WK, Dose: 0, 40, 80 MG/KG IN BUFFERED SALINE 3/WK FOR 52 WK, Tumor Site: Type of Lesion: LYMPHATIC SYSTEM: HISTIOCYTIC LYMPHOMA) was “active; positive”, the carcinogen call (Species: MOUSE, Strain/Sex: B6C3F1/MALE, Route: INTRAPERITONEAL, Dose: 0, 40, 80 MG/KG IN BUFFERED SALINE 3/WK FOR 52 WK, Dose: 0, 40, 80 MG/KG IN BUFFERED SALINE 3/WK FOR 52 WK) was “inactive; negative” and the carcinogen call (Species: RAT, Strain/Sex: SPRAGUE-DAWLEY/FEMALE, Route: INTRAPERITONEAL, Dose: 0, 48, 96 MG/KG IN BUFFERED SALINE 3/WK FOR 52 WK, Dose: 0, 48, 96 MG/KG IN BUFFERED SALINE 3/WK FOR 52 WK, Tumor Site: Type of Lesion: UTERUS: ADENOCARCINOMA (NOS)) was “active; positive”. For the same compound, the carcinogen call (Species: RAT, Strain/Sex: SPRAGUE-DAWLEY/MALE, Route: INTRAPERITONEAL, Dose: 0, 48, 96 MG/KG IN BUFFERED SALINE 3/WK FOR 52 WK, Dose: 0, 48, 96 MG/KG IN BUFFERED SALINE 3/WK FOR 52 WK) was “inactive; negative”.
In the case of Clc1c(Cl)c(Cl)c(Cl)c(Cl)c1Cl, the carcinogen call (Species: HAMSTER, Route: ORAL, Tumor Site: Type of Lesion: THYROID GLAND, LIVER) is reported as “active; positive”, the carcinogen call (Species: MOUSE, Route: ORAL, Tumor Site: Type of Lesion: LIVER) is reported as “active; positive” and the carcinogen call (Species: RAT, Strain/Sex: F344/FEMALE, Route: ORAL, Dose: 0, 0.02% IN DIET FOR 30 WK (STUDY DURATION: 35 WK)) is reported as “inactive; negative”. The carcinogen call (Species: RAT, Strain/Sex: F344/FEMALE, Route: ORAL, Dose: 0, 0.02% OF DIET FOR 90 WK (STUDY DURATION: 90 WK), Tumor Site: Type of Lesion: LIVER: HEPATOCELLULAR CARCINOMA OR NEOPLASTIC NODULE) was “active; positive”, the carcinogen call (Species: RAT, Strain/Sex: F344/MALE, Route: ORAL, Dose: 0, 0.02% IN DIET FOR 30 WK (STUDY DURATION: 35 WK)) was “inactive; negative” and the carcinogen call (Species: RAT, Strain/Sex: F344/MALE, Route: ORAL, Dose: 0, 0.02% OF DIET FOR 90 WK (STUDY DURATION: 90 WK)) was “inactive; negative”.
C=CCc1ccc(O)c(OC)c1 was tested, and the carcinogen call (Species: MOUSE, Strain/Sex: B6C3F1/FEMALE, Route: ORAL, Dose: 0, 3000, 6000 PPM IN DIET FOR 103 WK (STUDY DURATION: 103 WK), Dose: 0, 3000, 6000 PPM IN DIET FOR 103 WK (STUDY DURATION: 103 WK), Tumor Site: Type of Lesion: LIVER: HEPATOCELLULAR ADENOMA OR CARCINOMA) was “equivocal”, the carcinogen call (Species: MOUSE, Strain/Sex: B6C3F1/MALE, Route: ORAL, Dose: 0, 3000, 6000 PPM IN DIET FOR 103 WK (STUDY DURATION: 103 WK), Dose: 0, 3000, 6000 PPM IN DIET FOR 103 WK (STUDY DURATION: 103 WK), Tumor Site: Type of Lesion: LIVER: HEPATOCELLULAR ADENOMA, HEPATOCELLULAR CARCINOMA) was “equivocal” and the carcinogen call (Species: RAT, Strain/Sex: F344/FEMALE, Route: ORAL, Dose: 0, 6000, 12500 PPM IN DIET FOR 103 WK (STUDY DURATION: 103 WK), Dose: 0, 6000, 12500 PPM IN DIET FOR 103 WK (STUDY DURATION: 103 WK)) was “inactive; negative”. The carcinogen call (Species: RAT, Strain/Sex: F344/MALE, Route: ORAL, Dose: 0, 3000, 6000 PPM IN DIET FOR 103 WK (STUDY DURATION: 103 WK), Dose: 0, 3000, 6000 PPM IN DIET FOR 103 WK (STUDY DURATION: 103 WK)) was “inactive; negative”.
With CC(C)(C)NC(=O)[C@H]1CC[C@H]2[C@@H]3CC[C@H]4NC(=O)C=C[C@]4(C)[C@H]3CC[C@]12C the carcinogen call (Species: MOUSE, Strain/Sex: CD-1/MALE, Route: GAVAGE, Dose: 0, 2.5, 25, 250 MG/KG/D FOR 83 WK (STUDY DURATION: 83 WK), Dose: 0, 2.5, 25, 250 MG/KG/D FOR 83 WK (STUDY DURATION: 83 WK), Tumor Site: Type of Lesion: TESTES: LEYDIG CELL ADENOMA) was “active; positive”.
CC(=O)CCNCN=O was tested, and the carcinogen call (Species: HAMSTER, Strain/Sex: SYRIAN/FEMALE, Route: SUBCUTANEOUS, Dose: 20.25, 40.5, 81MG/KG 1/WK FOR LIFE, Dose: 20.25, 40.5, 81MG/KG 1/WK FOR LIFE, Tumor Site: Type of Lesion: NASAL CAVITY: ADENOCARCINOMA, ORAL CAVITY (CHEEK POUCH): SQUAMOUS CELL PAPILLOMA, SQUAMOUS CELL CARCINOMA, COLON: CARCIN, Tumor Site: Type of Lesion: NASAL CAVITY: ADENOCARCINOMA, ORAL CAVITY (CHEEK POUCH): SQUAMOUS CELL PAPILLOMA, SQUAMOUS CELL CARCINOMA, COLON: CARCIN) was “active; positive” and the carcinogen call (Species: HAMSTER, Strain/Sex: SYRIAN/MALE, Route: SUBCUTANEOUS, Dose: 17.63, 35.25, 70.5 MG/KG 1/WKFOR LIFE, Dose: 17.63, 35.25, 70.5 MG/KG 1/WKFOR LIFE, Tumor Site: Type of Lesion: NASAL CAVITY: ADENOCARCINOMA, ORAL CAVITY (CHEEK POUCH): SQUAMOUS CELL PAPILLOMA, SQUAMOUS CELL CARCINOMA, COLON: CARCIN, Tumor Site: Type of Lesion: NASAL CAVITY: ADENOCARCINOMA, ORAL CAVITY (CHEEK POUCH): SQUAMOUS CELL PAPILLOMA, SQUAMOUS CELL CARCINOMA, COLON: CARCIN) was “active; positive”.

— PubChem BioAssay AID1259411 (Chemical Carcinogenesis Research Information System (CCRIS), 2018)
